Tests used:
Assay type in all cases: in vivo
[1] = test system: Scirpus juncoides; assay: Test Example 1: herbicidal activity, application before weed generation in submerged conditions (symbol B); conditions: application herbicide amount 320 g/ha
Method in brief: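 Weed control was rated three weeks after treatment on a 0–5 scale, from 5% or lower up to 90% or more. Pre-emergence water-surface application of diluted emulsion at a predetermined rate was made on the day of sowing, in flooded (4 cm water) pots containing rice seedlings, kept at 25–30 °C under glass.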

[2] = test system: Leptochloa chinensis; assay: Test Example 3: herbicidal effect by foliage application, Wagner pot (symbol D); conditions: application herbicide amount 320 g/ha
Method in brief: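 Plants sown in submerged alluvial soil (water depth 0.1–0.5 cm) in a 25–30 °C greenhouse and grown 14 days. An emulsion of the compound diluted in water to a set herbicide amount was sprayed uniformly on foliage. Effect on each plant scored 3 weeks after application.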

[3] = test system: Setaria viridis; assay: Test Example 4: herbicidal effect by soil treatment (symbol G); conditions: application herbicide amount 320 g/ha
Method in brief: (§1)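 Seeds were sown in sterilized diluvial soil, covered with about 1.5 cm of soil, and the soil surface was sprayed with a water-diluted emulsion of the compound at a predetermined rate. Plants grew in a greenhouse at 25° C. to 30° C.; effects were scored visually 3 weeks after application.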

[4] = test system: Avena fatua; assay: Test Example 4: herbicidal effect by soil treatment (symbol I); conditions: application herbicide amount 320 g/ha
Method in brief: as §1

[5] = test system: Apera spica-venti; assay: Test Example 4: herbicidal effect by soil treatment (symbol L); conditions: application herbicide amount 320 g/ha
Method in brief: as §1

[6] = test system: Amaranthus retroflexus; assay: Test Example 4: herbicidal effect by soil treatment (symbol N); conditions: application herbicide amount 320 g/ha
Method in brief: as §1

[7] = test system: Galium spurium; assay: Test Example 4: herbicidal effect by soil treatment (symbol Q); conditions: application herbicide amount 320 g/ha
Method in brief: as §1

[8] = test system: soybean; assay: Test Example 4: effect on crop by soil treatment (symbol d); conditions: application herbicide amount 320 g/ha
Method in brief: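 Diluvial soil (sterilized) in boxes; seeds placed spot-wise alongside weed species; ~1.5 cm covering soil. Greenhouse, 25–30° C.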

[9] = test system: Digitaria ciliaris; assay: Test Example 5: herbicidal effect by foliage application, plastic box (symbol F); conditions: 320 g/ha, 3 weeks after application
Method in brief: (§2)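 Emulsion formulation, diluted with water to the intended rate, was applied uniformly to leaves by small sprayer. Recipients were 14-day greenhouse-grown seedlings (25° C. to 30° C.). Assessment followed at 3 weeks.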

[10] = test system: Echinochloa crus-galli var. crus-galli; assay: Test Example 5: herbicidal effect by foliage application, plastic box (symbol H); conditions: 320 g/ha, 3 weeks after application
Method in brief: as §2

[11] = test system: Avena fatua; assay: Test Example 5: herbicidal effect by foliage application, plastic box (symbol I); conditions: 320 g/ha, 3 weeks after application
Method in brief: as §2

[12] = test system: Apera spica-venti; assay: Test Example 5: herbicidal effect by foliage application, plastic box (symbol L); conditions: 320 g/ha, 3 weeks after application
Method in brief: as §2

[13] = test system: Abutilon theophrasti; assay: Test Example 5: herbicidal effect by foliage application, plastic box (symbol M); conditions: 320 g/ha, 3 weeks after application
Method in brief: as §2

[14] = test system: Stellaria media; assay: Test Example 5: herbicidal effect by foliage application, plastic box (symbol P); conditions: 320 g/ha, 3 weeks after application
Method in brief: as §2

[15] = test system: Galium spurium; assay: Test Example 5: herbicidal effect by foliage application, plastic box (symbol Q); conditions: 320 g/ha, 3 weeks after application
Method in brief: as §2

[16] = test system: Veronica persica; assay: Test Example 5: herbicidal effect by foliage application, plastic box (symbol R); conditions: 320 g/ha, 3 weeks after application
Method in brief: as §2

[17] = test system: beet; assay: Test Example 5: effect on crop by foliage application, plastic box (symbol f); conditions: 320 g/ha, 3 weeks after application
Method in brief: (§3)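 Crop and weed seeds sown in spots in sterilized diluvial soil in plastic boxes and covered with about 1.5 cm soil. Plants raised in a greenhouse at 25° C. to 30° C. for foliar application.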

[18] = test system: rapeseed; assay: Test Example 5: effect on crop by foliage application, plastic box (symbol g); conditions: 320 g/ha, 3 weeks after application
Method in brief: as §3

| SMILES | Herbicidal effect grade, B: Scirpus juncoides [1] | herbicidal effect on D (Leptochloa chinensis), grade 0-5 [2] | G: Setaria viridis, herbicidal effect grade [3] | I: Avena fatua, herbicidal effect grade [4] | L: Apera spica-venti, herbicidal effect grade [5] | N: Amaranthus retroflexus, herbicidal effect grade [6] | Q: Galium spurium, herbicidal effect grade [7] | d: soybean, effect on crop grade [8] | F: Digitaria ciliaris, herbicidal effect (criteria of Test Example 1) [9] | H: Echinochloa crus-galli var. crus-galli, herbicidal effect (criteria of Test Example 1) [10] | I: Avena fatua, herbicidal effect (criteria of Test Example 1) [11] | L: Apera spica-venti, herbicidal effect (criteria of Test Example 1) [12] | M: Abutilon theophrasti, herbicidal effect (criteria of Test Example 1) [13] | P: Stellaria media, herbicidal effect (criteria of Test Example 1) [14] | Q: Galium spurium, herbicidal effect (criteria of Test Example 1) [15] | R: Veronica persica, herbicidal effect (criteria of Test Example 1) [16] | f: beet, effect on crop (criteria of Test Example 1) [17] | g: rapeseed, effect on crop (criteria of Test Example 1) [18] | G (Setaria viridis) herbicidal effect grade [3] | I (Avena fatua) herbicidal effect grade [4] | further results |
| --- | --- | --- | --- | --- | --- | --- | --- | --- | --- | --- | --- | --- | --- | --- | --- | --- | --- | --- | --- | --- | --- |
| CON=C(C)CC1CC(OC(=O)N(C)C)=C(c2c(C)cc(-c3ccc(Cl)cc3)cc2C)C1=O (mixture of isomers) [6-063] | 2 (Herbicidal ratio of 20% or higher and lower than 40%) | 5 (Herbicidal ratio of 90% or more (almost completely withered)) | 1 (Herbicidal ratio of 5% or higher and lower than 20%) | 0 (Herbicidal ratio of 5% or lower (almost no effect)) | 5 (Herbicidal ratio of 90% or more (almost completely withered)) | 0 (Herbicidal ratio of 5% or lower (almost no effect)) | 0 (Herbicidal ratio of 5% or lower (almost no effect)) | 0 (Herbicidal ratio of 5% or lower (almost no effect)) | 5 (Herbicidal ratio of 90% or more (almost completely withered)) | 5 (Herbicidal ratio of 90% or more (almost completely withered)) | 5 (Herbicidal ratio of 90% or more (almost completely withered)) | 5 (Herbicidal ratio of 90% or more (almost completely withered)) | 2 (Herbicidal ratio of 20% or higher and lower than 40%) | 0 (Herbicidal ratio of 5% or lower (almost no effect)) | 3 (Herbicidal ratio of 40% or higher and lower than 70%) | 0 (Herbicidal ratio of 5% or lower (almost no effect)) | 0 (Herbicidal ratio of 5% or lower (almost no effect)) | 4 (Herbicidal ratio of 70% or higher and lower than 90%) |  |  |  |
| CON=C(C)C(C(C)=NOC)C1CC(O)=C(c2c(C)cc(C)cc2C)C1=O (stereo not shown) [1-021] | 0 (Herbicidal ratio of 5% or lower (almost no effect)) | 0 (Herbicidal ratio of 5% or lower (almost no effect)) |  |  |  |  |  |  |  |  |  |  |  |  |  |  |  |  | 0 (Herbicidal ratio of 5% or lower (almost no effect)) | 0 (Herbicidal ratio of 5% or lower (almost no effect)) | L (Apera spica-venti) herbicidal effect grade [5]: 0 (Herbicidal ratio of 5% or lower (almost no effect)); N (Amaranthus retroflexus) herbicidal effect grade [6]: 0 (Herbicidal ratio of 5% or lower (almost no effect)); Q (Galium spurium) herbicidal effect grade [7]: 0 (Herbicidal ratio of 5% or lower (almost no effect)); d (soybean) effect on crop grade [8]: 0 (Herbicidal ratio of 5% or lower (almost no effect)); F: Digitaria ciliaris, herbicidal effect grade [9]: 1 (Herbicidal ratio of 5% or higher and lower than 20%); H: Echinochloa crus-galli var. crus-galli, herbicidal effect grade [10]: 3 (Herbicidal ratio of 40% or higher and lower than 70%); I: Avena fatua, herbicidal effect grade [11]: 0 (Herbicidal ratio of 5% or lower (almost no effect)); L: Apera spica-venti, herbicidal effect grade [12]: 4 (Herbicidal ratio of 70% or higher and lower than 90%); M: Abutilon theophrasti, herbicidal effect grade [13]: 0 (Herbicidal ratio of 5% or lower (almost no effect)); Q: Galium spurium, herbicidal effect grade [15]: 0 (Herbicidal ratio of 5% or lower (almost no effect)); R: Veronica persica, herbicidal effect grade [16]: 0 (Herbicidal ratio of 5% or lower (almost no effect)); f: beet, effect on crop grade [17]: 0 (Herbicidal ratio of 5% or lower (almost no effect)); g: rapeseed, effect on crop grade [18]: 2 (Herbicidal ratio of 20% or higher and lower than 40%) |
| CON=C(C)CC1CC(OC(=O)N2CCOCC2)=C(c2c(C)cc(-c3ccc(Cl)cc3)cc2C)C1=O (mixture of isomers) [6-062] | 4 (Herbicidal ratio of 70% or higher and lower than 90%) | 5 (Herbicidal ratio of 90% or more (almost completely withered)) | 5 (Herbicidal ratio of 90% or more (almost completely withered)) | 0 (Herbicidal ratio of 5% or lower (almost no effect)) | 5 (Herbicidal ratio of 90% or more (almost completely withered)) | 0 (Herbicidal ratio of 5% or lower (almost no effect)) | 0 (Herbicidal ratio of 5% or lower (almost no effect)) | 0 (Herbicidal ratio of 5% or lower (almost no effect)) | 5 (Herbicidal ratio of 90% or more (almost completely withered)) | 5 (Herbicidal ratio of 90% or more (almost completely withered)) | 5 (Herbicidal ratio of 90% or more (almost completely withered)) | 5 (Herbicidal ratio of 90% or more (almost completely withered)) | 3 (Herbicidal ratio of 40% or higher and lower than 70%) | 3 (Herbicidal ratio of 40% or higher and lower than 70%) | 5 (Herbicidal ratio of 90% or more (almost completely withered)) | 5 (Herbicidal ratio of 90% or more (almost completely withered)) | 0 (Herbicidal ratio of 5% or lower (almost no effect)) | 4 (Herbicidal ratio of 70% or higher and lower than 90%) |  |  |  |
| CC(CC1CC(O)=C(c2c(C)cc(C)cc2C)C1=O)=NOCc1ccccc1 (stereo not shown) [1-020] | 5 (Herbicidal ratio of 90% or more (almost completely withered)) | 5 (Herbicidal ratio of 90% or more (almost completely withered)) |  |  |  |  |  |  |  |  |  |  |  |  |  |  |  |  | 5 (Herbicidal ratio of 90% or more (almost completely withered)) | 4 (Herbicidal ratio of 70% or higher and lower than 90%) | L (Apera spica-venti) herbicidal effect grade [5]: 5 (Herbicidal ratio of 90% or more (almost completely withered)); N (Amaranthus retroflexus) herbicidal effect grade [6]: 0 (Herbicidal ratio of 5% or lower (almost no effect)); Q (Galium spurium) herbicidal effect grade [7]: 0 (Herbicidal ratio of 5% or lower (almost no effect)); d (soybean) effect on crop grade [8]: 0 (Herbicidal ratio of 5% or lower (almost no effect)); F: Digitaria ciliaris, herbicidal effect grade [9]: 5 (Herbicidal ratio of 90% or more (almost completely withered)); H: Echinochloa crus-galli var. crus-galli, herbicidal effect grade [10]: 5 (Herbicidal ratio of 90% or more (almost completely withered)); I: Avena fatua, herbicidal effect grade [11]: 4 (Herbicidal ratio of 70% or higher and lower than 90%); L: Apera spica-venti, herbicidal effect grade [12]: 5 (Herbicidal ratio of 90% or more (almost completely withered)); M: Abutilon theophrasti, herbicidal effect grade [13]: 3 (Herbicidal ratio of 40% or higher and lower than 70%); Q: Galium spurium, herbicidal effect grade [15]: 4 (Herbicidal ratio of 70% or higher and lower than 90%); R: Veronica persica, herbicidal effect grade [16]: 4 (Herbicidal ratio of 70% or higher and lower than 90%); f: beet, effect on crop grade [17]: 3 (Herbicidal ratio of 40% or higher and lower than 70%); g: rapeseed, effect on crop grade [18]: 4 (Herbicidal ratio of 70% or higher and lower than 90%) |
